Results taken from patent US10717753B2, “Deuterium-modified brigatinib derivatives, pharmaceutical compositions comprising same, and use thereof” (Chia Tai Tianqing Pharmaceutical Group Co., Ltd., priority 2015, dated 2020).

Columns and labels:
[1] = test system: human lung cancer cell NCI-H3122; assay: Inhibition of proliferation in vitro, SRB method; format: cell-based; settings: NCI-H3122 cells expressing EML4-ALK fusion protein, 72 hours, mean±standard deviation
Procedure: 1.1 Cells: human lung cancer cell line NCl—H3122, expressing EML4-ALK fusion protein.
1.2 Main reagents: sulfonyl rhodamine B, RPMI-1640 liquid medium, dimethyl sulfoxide (DMSO), trichloromethane (chloroform).
1.3 Instruments: Varioskan Flash microplate reader.
1.4 Solution preparation: an appropriate amount of a series of test compounds was taken and dissolved using 5% chloroform+95% DMSO, to form a stock solution of 20 mM, which was stored at −20° C. in aliquots. The positive drug Crizotinib was taken and dissolved using 5% chloroform+95% DMSO, and the stock solution was diluted with fresh medium to a working concentration before use. 95 μl DMSO and 5 μl chloroform were taken, mixed together, and diluted with fresh medium to a working concentration before use.
The tumor cell line used in tests was cultured in RPM11640 medium containing 10% inactivated Hyclone serum or fetal bovine serum, 100 IU/mL penicillin and 100 IU/mL streptomycin, in a 5% CO2 incubator at 37° C. NCl—H3122 cells were inoculated into a 96-well plate at 5000/well. It was ensured that the cells were in logarithmic growth phase during the whole test.
Groups of series of test compounds, negative control and Crizotinib (positive control) were set up in this test. For each test compound group, 6 concentration gradients by 3-fold serial dilution were set, and three wells were for each concentration. For positive control group, 6 concentration gradients by 3-fold serial dilution were set, and three wells were for each concentration. Negative control was 5% chloroform+95% DMSO (the same concentration as that of test compound at 100 nM), and 6 wells were set.
After the cells were treated with the drugs for 72 hours, the culture medium was discarded. A pre-chilled 10% trichloroacetic acid (TCA) solution was added into each well to fix the cells and the plate was placed in a refrigerator at 4° C. to fix. Each well of the plate was washed with deionized water for 5 times to remove trichloroacetic acid solution. After being dried in air, each well was added with SRB solution (4 mg/ml) prepared with 1% acetic acid and then kept for 20 minutes at room temperature. After the liquid was discarded, each well was washed with 1% acetic acid for 5 times to remove uncombined SRB dye, and then dried in air. An appropriate volume of 10 mM Tris-base (trimethylolamine methane) solution at pH 10.5 was added into each well to dissolve the cells. The plate was shaken on a plate shaker for 10 minutes. The absorbance (OD) value was measured at a wavelength of 490 nm in a microplate reader.
According to the OD values measured by microplate reader, an inhibition rate was calculated as the following formula: Survival rate (%)=OD of drug well/OD of control well×100%,
If the survival rate was ≥100%, it was recorded as 100%.
Using Calcusyn software, IC50 was calculated, and mean and standard deviation thereof were calculated, and the data was expressed as: mean±standard deviation.

[2] = Stability in monkey liver microsomes in vitro; format: in vitro ADME; settings: for half-life at 0.01 μmol/L: monkey liver microsomes 0.5 mg/mL protein, NADPH, 37° C., 1 μmol/L test compound; for Prolonging rates: prolongation of t1/2 in monkey liver microsomes versus Brigatinib; for half-life period compared to the original drug Brigatinib: monkey liver microsomes, statement in words
Procedure: 300 μL of a final incubation system contains 30 μL of monkey liver microsomes (protein concentration: 0.5 mg/mL, American BD Company), 30 μL of NADPH+MgCl2, 3 μL of a substrate (a solution of 1 μmol/L test compound in acetonitrile) and 237 μL of PBS buffer solution. The above incubation system was made in duplicate, each of 0.3 mL.
For each sample, an evenly mixed solution of the substrate and enzyme with a total volume of 270 μL was first prepared, and after pre-incubation at 37° C. for 5 min, 30 μL of NADPH+MgCl2 was added and mixed. 40 μL of the reaction solution was taken respectively at 0, 15, 30, 60 and 90 min, and the reaction was stopped by 300 μL of ice-cold acetonitrile containing an internal standard. In addition, three blanks (KB) were set, each of 300 μL (KB1: no NADPH; KB2: no substrate; KB3: no enzyme).
40 μL of the incubation sample was pipetted out, added with 400 μL of ice-cold acetonitrile containing an internal standard, vortexed for 5 min and centrifuged (13000 rpm, 4° C.) for 10 min. 80 μL of the supernatant was pipetted out in a loading plate, and then 80 μL of 50% acetonitrile aqueous solution was added to the plate and mixed. 1 μL of the mixture was pipetted out for LC/MS/MS assay and the chromatogram was recorded.

Row | IC50 [1] [nM] | half-life at 0.01 μmol/L [2] [h] | Prolonging rates [2] [%] | SMILES | half-life period compared to the original drug Brigatinib [2]
1 | 12.7 ± 2.37 | 3.32 | 17 | [2H]C([2H])([2H])Oc1cc(N2CCC(N3CCN(C([2H])([2H])[2H])CC3)CC2)ccc1Nc1ncc(Cl)c(Nc2ccccc2P(C)(C)=O)n1 [Compound I-3, (2-((5-chloro-2-((2-[D3]methoxy-4-(4-(4-[D3]methylpiperazin-1-yl)piperidin-1-yl)phenyl)amino)pyrimidin-4-yl)amino)phenyl)dimethyl phosphorus oxide] | 
2 | 10 ± 1.05 | 3.82 | 35 | [2H]C([2H])([2H])Oc1cc(N2CCC(N3CCN(C)CC3)CC2)ccc1Nc1ncc(Cl)c(Nc2ccccc2P(C)(C)=O)n1 [Compound I-1, (2-((5-chloro-2-((2-[D3]methoxy-4-(4-(4-methylpiperazin-1-yl)piperidin-1-yl)phenyl)amino)pyrimidin-4-yl)amino)phenyl)dimethyl phosphorus oxide] | significantly prolong the half-life period
3 | 11.1 ± 0.69 |  |  | C[C@@H](Oc1cc(-c2cnn(C3CCNCC3)c2)cnc1N)c1c(Cl)ccc(F)c1Cl [Crizotinib, reference compound] | 
4 | 11.1 ± 2.07 | 2.93 | 4 | [2H]C1([2H])CN(C)CC([2H])([2H])N1C1CCN(c2ccc(Nc3ncc(Cl)c(Nc4ccccc4P(C)(C)=O)n3)c(OC)c2)CC1 [Compound I-4, (2-((5-chloro-2-((2-methoxy-4-(4-(4-methyl[2,2,6,6-D4]piperazin-1-yl)piperidine-1-yl)phenyl)amino)pyrimidin-4-yl)amino)phenyl)dimethyl phosphorus oxide] | 
5 | 13.3 ± 1.6 | 2.83 |  | COc1cc(N2CCC(N3CCN(C)CC3)CC2)ccc1Nc1ncc(Cl)c(Nc2ccccc2P(C)(C)=O)n1 [Brigatinib, 5-chloro-N^4-[2-(dimethylphosphonyl)phenyl]-N^2-{2-methoxy-4-[4-(4-methylpiperazin-1-yl)piperidin-1-yl]phenyl}pyrimidine-2,4-diamine] | 
6 | 9.45 ± 1.79 | 3.93 | 39 | [2H]C([2H])([2H])N1CCN(C2CCN(c3ccc(Nc4ncc(Cl)c(Nc5ccccc5P(C)(C)=O)n4)c(OC)c3)CC2)CC1 [Compound I-2, (2-((5-chloro-2-((2-methoxy-4-(4-(4-[D3]methylpiperazin-1-yl)piperidin-1-yl)phenyl)amino)pyrimidin-4-yl)amino)phenyl)dimethyl phosphorus oxide] | significantly prolong the half-life period
7 | 7.65 ± 1.07 | 3.57 | 26 | [2H]C1([2H])CN(C2CCN(c3ccc(Nc4ncc(Cl)c(Nc5ccccc5P(C)(C)=O)n4)c(OC)c3)CC2)CC([2H])([2H])N1C [Compound I-9, (2-((5-chloro-2-((2-methoxy-4-(4-(4-methyl[3,3,5,5-D4]piperazin-1-yl)piperidin-1-yl)phenyl)amino)pyrimidin-4-yl)amino)phenyl)dimethyl phosphorus oxide] | 
8 | 9.99 ± 2.31 | 3.72 | 31 | [2H]C1([2H])N(C)C([2H])([2H])C([2H])([2H])N(C2CCN(c3ccc(Nc4ncc(Cl)c(Nc5ccccc5P(C)(C)=O)n4)c(OC)c3)CC2)C1([2H])[2H] [Compound I-6, (2-((5-chloro-2-((2-methoxy-4-(4-(4-methyl[D8]piperazin-1-yl)piperidin-1-yl)phenyl)amino)pyrimidin-4-yl)amino)phenyl)dimethyl phosphorus oxide] | significantly prolong the half-life period
9 | 9.89 ± 0.76 | 3.78 | 34 | [2H]C([2H])([2H])N1C([2H])([2H])CN(C2CCN(c3ccc(Nc4ncc(Cl)c(Nc5ccccc5P(C)(C)=O)n4)c(OC)c3)CC2)CC1([2H])[2H] [Compound I-7] | significantly prolong the half-life period
